In US20090036448A1, “PYRIMIDINE DERIVATIVES AND METHODS OF TREATMENT RELATED TO THE USE THEREOF” (TAISHO PHARMECUTICAL CO., LTD., priority 2004, published 2009):

Each molecule was assayed against MCH receptor (Homo sapiens, UniProt Q99705) (assay: Receptor binding assay with Radiolabelled MCH Ligand). Conditions: class by percent of control at 10^-7 M or IC50.
Parameters: expressed in transfected cells; host or cells: 293 cells (human kidney, ATCC), transient transfection; crude membranes
Summary of the method: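 Membranes from 293 cells transiently transfected with human MCH receptor competed test compounds against a radiolabelled MCH ligand in Tris-HCl pH 7.4 with MgCl2 and EDTA for 60–120 min at room temperature. Filtration and scintillation counting followed, with cold MCH defining nonspecific binding. IC50 came from logit-log plots of %B/B0, and Ki from the Cheng-Prusoff equation.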

MCH receptor, sequence (Q99705 whole entry): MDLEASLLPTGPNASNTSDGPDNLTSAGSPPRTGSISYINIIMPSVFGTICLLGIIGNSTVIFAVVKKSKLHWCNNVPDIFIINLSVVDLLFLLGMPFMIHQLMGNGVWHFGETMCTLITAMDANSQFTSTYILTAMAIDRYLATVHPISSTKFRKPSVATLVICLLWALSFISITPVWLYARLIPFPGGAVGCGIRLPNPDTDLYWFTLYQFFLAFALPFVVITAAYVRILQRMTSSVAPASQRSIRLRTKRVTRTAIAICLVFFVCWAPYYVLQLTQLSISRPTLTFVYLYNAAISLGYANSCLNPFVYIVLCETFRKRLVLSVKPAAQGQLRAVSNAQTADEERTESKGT

| Structure (SMILES) | class |
| --- | --- |
| Cc1ccc(S(=O)(=O)NCC(=O)N[C@H]2CC[C@@H](Nc3cc(N(C)C)nc(C)n3)CC2)cc1 [compound 317] | 3 (Class 3: The value of percent of control at 10^−7 M was more than 60% or the value of IC50 was more than 200 nM.) |
| Cc1nc(N[C@H]2CC[C@@H](NC(=O)Cc3c[nH]c4ccc(OCc5ccccc5)cc34)CC2)cc(N(C)C)n1 [compound 318] | 3 (Class 3: The value of percent of control at 10^−7 M was more than 60% or the value of IC50 was more than 200 nM.) |
| Cc1cccc(NC(=O)c2ccccc2C(=O)N[C@H]2CC[C@@H](Nc3cc(N(C)C)nc(C)n3)CC2)c1 [compound 319] | 3 (Class 3: The value of percent of control at 10^−7 M was more than 60% or the value of IC50 was more than 200 nM.) |
| Cc1nc(N[C@H]2CC[C@@H](NC(=O)c3cccc4c(=O)c(C)c(-c5ccccc5)oc34)CC2)cc(N(C)C)n1 [compound 320] | 3 (Class 3: The value of percent of control at 10^−7 M was more than 60% or the value of IC50 was more than 200 nM.) |
| Cc1nc(N[C@H]2CC[C@@H](NC(=O)c3ccccc3C(=O)c3cc(C(F)(F)F)cc(C(F)(F)F)c3)CC2)cc(N(C)C)n1 [compound 322] | 3 (Class 3: The value of percent of control at 10^−7 M was more than 60% or the value of IC50 was more than 200 nM.) |
| Cc1nc(N[C@H]2CC[C@@H](NC(=O)c3ccccc3C(=O)c3sc4ccccc4c3C)CC2)cc(N(C)C)n1 [compound 323] | 3 (Class 3: The value of percent of control at 10^−7 M was more than 60% or the value of IC50 was more than 200 nM.) |
| Cc1nc(N[C@H]2CC[C@@H](NC(=O)c3ccc4c(c3)C(=O)c3ccccc3-4)CC2)cc(N(C)C)n1 [compound 324] | 3 (Class 3: The value of percent of control at 10^−7 M was more than 60% or the value of IC50 was more than 200 nM.) |
| Cc1nc(N[C@H]2CC[C@@H](NC(=O)c3ccccc3-c3ccccc3)CC2)cc(N(C)C)n1 [compound 325] | 3 (Class 3: The value of percent of control at 10^−7 M was more than 60% or the value of IC50 was more than 200 nM.) |
| Cc1nc(N[C@H]2CC[C@@H](NC(=O)c3ccc(Oc4ccccc4)cc3)CC2)cc(N(C)C)n1 [compound 326] | 3 (Class 3: The value of percent of control at 10^−7 M was more than 60% or the value of IC50 was more than 200 nM.) |
| Cc1nc(N[C@H]2CC[C@@H](NC(=O)C3c4ccccc4Oc4ccccc43)CC2)cc(N(C)C)n1 [compound 327, N-(cis-4-{[6-(dimethylamino)-2-methylpyrimidin-4-yl]amino}cyclohexyl)-9H-xanthene-9-carboxamide] | 3 (Class 3: The value of percent of control at 10^−7 M was more than 60% or the value of IC50 was more than 200 nM.) |
| Cc1nc(N[C@H]2CC[C@@H](NC(=O)c3ccccc3C(=O)N[C@@H](C)c3ccccc3)CC2)cc(N(C)C)n1 [compound 328] | 3 (Class 3: The value of percent of control at 10^−7 M was more than 60% or the value of IC50 was more than 200 nM.) |
| Cc1nc(N[C@H]2CC[C@@H](NC(=O)c3ccc(OCc4ccccc4)cc3)CC2)cc(N(C)C)n1 [compound 329] | 3 (Class 3: The value of percent of control at 10^−7 M was more than 60% or the value of IC50 was more than 200 nM.) |
| Cc1ccc(C(=O)c2ccccc2C(=O)N[C@H]2CC[C@@H](Nc3cc(N(C)C)nc(C)n3)CC2)cc1 [compound 330] | 3 (Class 3: The value of percent of control at 10^−7 M was more than 60% or the value of IC50 was more than 200 nM.) |
| Cc1nc(N[C@H]2CC[C@@H](NC(=O)c3ccccc3COc3ccccc3)CC2)cc(N(C)C)n1 [compound 331, N-(cis-4-{[6-(dimethylamino)-2-methylpyrimidin-4-yl]amino}cyclohexyl)-[(2-phenyloxy)methyl]benzamide] | 3 (Class 3: The value of percent of control at 10^−7 M was more than 60% or the value of IC50 was more than 200 nM.) |
| Cc1nc(N[C@H]2CC[C@@H](NC(=O)c3ccccc3C(=O)Nc3cccc4ccccc34)CC2)cc(N(C)C)n1 [compound 332] | 3 (Class 3: The value of percent of control at 10^−7 M was more than 60% or the value of IC50 was more than 200 nM.) |
| Cc1nc(N[C@H]2CC[C@@H](NC(=O)c3ccc4cc5ccccc5cc4c3)CC2)cc(N(C)C)n1 [compound 333] | 3 (Class 3: The value of percent of control at 10^−7 M was more than 60% or the value of IC50 was more than 200 nM.) |
| CCCCCCCc1ccc(-c2ccc(C(=O)N[C@H]3CC[C@@H](Nc4cc(N(C)C)nc(C)n4)CC3)cc2)cc1 [compound 334] | 3 (Class 3: The value of percent of control at 10^−7 M was more than 60% or the value of IC50 was more than 200 nM.) |
| Cc1nc(N[C@H]2CC[C@@H](NC(=O)Cc3sc(-c4ccccc4)nc3-c3ccc(Cl)cc3)CC2)cc(N(C)C)n1 [compound 335] | 3 (Class 3: The value of percent of control at 10^−7 M was more than 60% or the value of IC50 was more than 200 nM.) |
| Cc1nc(N[C@H]2CC[C@@H](NC(=O)CSCc3ccccc3)CC2)cc(N(C)C)n1 [compound 336] | 3 (Class 3: The value of percent of control at 10^−7 M was more than 60% or the value of IC50 was more than 200 nM.) |
| Cc1nc(N[C@H]2CC[C@@H](NC(=O)CCCc3ccccc3)CC2)cc(N(C)C)n1 [compound 337] | 3 (Class 3: The value of percent of control at 10^−7 M was more than 60% or the value of IC50 was more than 200 nM.) |
| Cc1nc(N[C@H]2CC[C@@H](NC(=O)Cc3csc4ccccc34)CC2)cc(N(C)C)n1 [compound 338] | 3 (Class 3: The value of percent of control at 10^−7 M was more than 60% or the value of IC50 was more than 200 nM.) |
| Cc1nc(N[C@H]2CC[C@@H](NC(=O)CC3Cc4ccccc4C3)CC2)cc(N(C)C)n1 [compound 339] | 3 (Class 3: The value of percent of control at 10^−7 M was more than 60% or the value of IC50 was more than 200 nM.) |
| COc1ccc(CCCC(=O)N[C@H]2CC[C@@H](Nc3cc(N(C)C)nc(C)n3)CC2)cc1OC [compound 340] | 3 (Class 3: The value of percent of control at 10^−7 M was more than 60% or the value of IC50 was more than 200 nM.) |
| Cc1nc(N[C@H]2CC[C@@H](NC(=O)CCCc3ccc4c(c3)OCCO4)CC2)cc(N(C)C)n1 [compound 341] | 3 (Class 3: The value of percent of control at 10^−7 M was more than 60% or the value of IC50 was more than 200 nM.) |
| Cc1ccc(S(=O)(=O)n2ccc(C(=O)N[C@H]3CC[C@@H](Nc4cc(N(C)C)nc(C)n4)CC3)c2)cc1 [compound 342] | 3 (Class 3: The value of percent of control at 10^−7 M was more than 60% or the value of IC50 was more than 200 nM.) |
| Cc1nc(N[C@H]2CC[C@@H](NC(=O)c3ccc(S(C)(=O)=O)cc3)CC2)cc(N(C)C)n1 [compound 343] | 3 (Class 3: The value of percent of control at 10^−7 M was more than 60% or the value of IC50 was more than 200 nM.) |
| CC(=O)c1ccc(C(=O)N[C@H]2CC[C@@H](Nc3cc(N(C)C)nc(C)n3)CC2)s1 [compound 344] | 3 (Class 3: The value of percent of control at 10^−7 M was more than 60% or the value of IC50 was more than 200 nM.) |
| CSc1sc(C(=O)N[C@H]2CC[C@@H](Nc3cc(N(C)C)nc(C)n3)CC2)c(Cl)c1S(=O)(=O)C(C)C [compound 345] | 3 (Class 3: The value of percent of control at 10^−7 M was more than 60% or the value of IC50 was more than 200 nM.) |
| Cc1nc(N[C@H]2CC[C@@H](NC(=O)c3ccc(S(C)(=O)=O)s3)CC2)cc(N(C)C)n1 [compound 346] | 3 (Class 3: The value of percent of control at 10^−7 M was more than 60% or the value of IC50 was more than 200 nM.) |
